Data on twelve sequences can be found in patent US20020142008A1, “Immunogenic pili presenting foreign peptides, their production and use” (priority 2000, published 2002).

Ends that are not written are not given here.

Test [1] concerns experimental pyelonephritis. Nature of the test: BALB/c murine model of experimental pyelonephritis, F13 peptide conjugate vaccines. It counts as in vivo. Conditions: BALB/c mice, serial parenteral administration of vaccine, intravesicular challenge.
Test [2] relates to homologous piliated Escherichia coli challenge strains (renal and/or bladder colonization). The test is described as follows: Intravesicular BALB/c experimental model of pyelonephritis and cystitis, pilin A synthetic peptide conjugate vaccines. Conditions: BALB/c mice, thyroglobulin and BSA conjugates ~200 ug i.m. day 0 and 14 in incomplete Freund's adjuvant; bladder inoculation 10^8 CFU homologous piliated strain; renal/bladder colonization at 48 hours; protection = >90% of cohort no growth and none >500 CFU per 0.1 gram. It is filed as in vivo. On the procedure:
The intravesicular BALB/c experimental model of pyelonephritis and cystitis, as originally described by O'Hanley, was employed to evaluate the protective capacity of structural pilin synthetic peptide conjugate vaccines to prevent subsequent renal and/or bladder colonization by homologous piliated strains at 48 hours after bacterial bladder inoculation. Cohorts of 20 mice per group were vaccinated via intramuscular administration on two occasions with the experimental thyroglobulin and bovine serum albumin conjugate pilin A vaccines (i.e., day 0 and day 14). Each intramuscular dose of experimental vaccine consisted of ^˜200 ug in 100 ul saline emulsified in 100 ul incomplete Freund's adjuvant. Control vaccines consisted of thyroglobulin and bovine serum albumin emulsified in saline and incomplete Freund's adjuvant. These control vaccines were administered in similar fashion and schedule as the experimental vaccines. Challenge for pilin A vaccinated mice entailed bladder inoculation of 10^8 CFU of an Escherichia coli strain that expressed homologous pili. In contrast, the cohort size for control animals was 5 per challenge strain. The table below summarizes the challenge strategy.
Protection against subsequent renal colonization and bladder colonization by the challenge strain was defined by >90% of the experimental animals in a cohort (i.e., 18 of 20 vaccinated experimental mice) having no bacterial growth from aliquots of homogenized whole right kidney and aliquots of homogenized whole bladders and none of the experimental animals having heavy bacterial growth from the challenge strain in renal or bladder specimens (viz., the absence of ++++ colonization density or >500 CFU of the challenge strain per 0.1 gram of renal or bladder tissue) compared to heavy growth of the challenge strain in both renal and bladder specimens (++++ colonization density or >500 CFU per 0.1 gm of renal or bladder tissue) by the challenge strain in >80% of control animals (i.e. >4 of 5 control mice).

As to “AKFGGMGAKKG (also: conjugated to carrier protein) [F13 structural pilin peptide conjugate vaccine]”, the “protection in experimental pyelonephritis” value in test [1] is recorded as “protective”. Take “IPEGQGKVT (also: conjugated to thyroglobulin or BSA) [F12 pilin A synthetic peptide conjugated to thyroglobulin or bovine serum albumin]”: in test [2], the “Homologous Protection” value is recorded as “Yes”. With “IPQGQGKVTFNGTV (also: conjugated to carrier protein) [F11 pilin A synthetic peptide conjugate vaccine]”, the “Homologous Protection” value in test [2] is “Yes”.

“NFKKAAGGGGAKT (also: conjugated to thyroglobulin or BSA) [F72 pilin A synthetic peptide conjugated to thyroglobulin or bovine serum albumin]”: the “Homologous Protection” value in test [2] is listed as “Yes”. Same read-out and setting: with “NFKKAATPGGAAKT (also: conjugated to thyroglobulin or BSA) [F9 pilin A synthetic peptide conjugated to thyroglobulin or bovine serum albumin]” the entry was “Yes”.

Turning to “NFKQLQGGAAKKG (also: conjugated to thyroglobulin or BSA) [F71 pilin A synthetic peptide conjugated to thyroglobulin or bovine serum albumin]”, in test [2], the “Homologous Protection” value is recorded as “Yes”. Same read-out and setting: with “NGGTVHFKGEVVN (also: conjugated to thyroglobulin or BSA) [F1C structural pilin synthetic peptide conjugated to thyroglobulin or bovine serum albumin]” the entry was “Yes”; with “PQGQGEVA (also: conjugated to thyroglobulin or BSA) [F71 pilin A synthetic peptide conjugated to thyroglobulin or bovine serum albumin]”, “Yes”. On to “PQGQGEVT (also: conjugated to thyroglobulin or BSA) [F71 pilin A synthetic peptide conjugated to thyroglobulin or bovine serum albumin]”, for which, in test [2], the “Homologous Protection” value is reported as “Yes”.

“PQGQGKVT (also: conjugated to carrier protein) [F72 and F13 pilin A synthetic peptide conjugate vaccine]”: the “Homologous Protection” value in test [2] is “Yes”. Besides, the “protection in experimental pyelonephritis” value in test [1] is “protective”.

Turning to “TTVNGGTVH (also: conjugated to carrier protein) [F9 pilin A synthetic peptide conjugate vaccine]”, the “Homologous Protection” value in test [2] was “Yes”. As for “TTVTVNGGTVHF (also: conjugated to thyroglobulin or BSA) [F1 structural pilin synthetic peptide conjugated to thyroglobulin or bovine serum albumin]”, the “Homologous Protection” value in test [2] is on record as “Yes”.
